# Measured values reported in patent US8242160B2, “Inhibitors of ubiquitin E1” (The United States of America, as represented by the …, priority 2005, dated 2012).
# Key:
# [1] = system: IκBα; assay: TNFα-induced IκBα degradation in cells; assay type: cell-based
# [2] = system: p53; assay: p53-driven luciferase reporter assay; assay type: cell-based
# Text: FIG. 5B depicts the results of reporter assays showing that the p53 induced by 4-[4-(5-nitro-furan-2-ylmethylene)-3,5-dioxo-pyrazolidin-1-yl]-benzoic acid methyl acid is transcriptionally active.
# [3] = system: untransformed retinal pigment epithelial cells; assay: Growth of untransformed RPE cells, MTT assay; assay type: cell-based
# Text: FIG. 6A depicts the induction of growth arrest in untransformed RPE cells by 4-[4-(5-nitro-furan-2-ylmethylene)-3,5-dioxo-pyrazolidin-1-yl]-benzoic acid methyl […], as measured by MTT assay.
# (§1) While p53 induces apoptotic cell death in many tumor cells, it generally only induces growth arrest in untransformed cells. This has been the rationale for many studies targeting the p53 system.
# [4] = system: MEFs (mouse embryonic fibroblasts) that express wild type p53; assay: Killing of MEFs that express wild type p53; assay type: cell-based
# Text: as §1
# [5] = target: T1, E1 (Homo sapiens, UniProt P22314); assay: Loading of E1 with ubiquitin in cells, anti-E1 immunoblot; assay type: cell-based; conditions: 50 μM, 1 hour
# T1 construct: endogenous in cells; host or cells: RPE cells
# T1 sequence (P22314 1-1058): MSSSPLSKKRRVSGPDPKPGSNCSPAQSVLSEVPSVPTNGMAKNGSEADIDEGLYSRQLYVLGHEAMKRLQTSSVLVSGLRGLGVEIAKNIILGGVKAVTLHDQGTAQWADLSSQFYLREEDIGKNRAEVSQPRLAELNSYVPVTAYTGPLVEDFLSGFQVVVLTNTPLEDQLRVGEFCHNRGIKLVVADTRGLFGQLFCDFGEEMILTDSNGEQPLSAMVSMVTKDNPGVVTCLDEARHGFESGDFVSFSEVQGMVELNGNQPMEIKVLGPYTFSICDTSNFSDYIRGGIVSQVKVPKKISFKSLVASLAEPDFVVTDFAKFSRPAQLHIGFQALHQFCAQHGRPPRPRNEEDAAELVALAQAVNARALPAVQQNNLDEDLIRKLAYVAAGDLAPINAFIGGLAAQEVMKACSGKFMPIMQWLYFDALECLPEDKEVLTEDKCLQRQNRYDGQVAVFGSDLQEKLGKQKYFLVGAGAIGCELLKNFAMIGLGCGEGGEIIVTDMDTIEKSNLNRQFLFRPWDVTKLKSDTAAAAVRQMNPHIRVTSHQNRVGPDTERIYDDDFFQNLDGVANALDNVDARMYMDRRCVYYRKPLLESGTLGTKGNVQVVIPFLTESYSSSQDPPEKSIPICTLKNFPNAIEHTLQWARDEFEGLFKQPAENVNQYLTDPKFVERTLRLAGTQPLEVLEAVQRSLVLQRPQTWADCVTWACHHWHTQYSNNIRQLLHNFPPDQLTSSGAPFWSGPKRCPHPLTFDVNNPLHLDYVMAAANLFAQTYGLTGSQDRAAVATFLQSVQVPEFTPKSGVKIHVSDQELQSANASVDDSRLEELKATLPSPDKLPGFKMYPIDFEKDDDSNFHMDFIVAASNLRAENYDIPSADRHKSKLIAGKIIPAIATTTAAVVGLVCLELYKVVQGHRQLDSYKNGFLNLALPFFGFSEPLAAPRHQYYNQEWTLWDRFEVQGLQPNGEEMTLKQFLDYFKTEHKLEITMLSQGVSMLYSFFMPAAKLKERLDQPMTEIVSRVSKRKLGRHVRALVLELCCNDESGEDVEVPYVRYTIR
# Protocol: RPE cells were treated with the E1 inhibitor of 4-[4-(5-nitro-furan-2-ylmethylene)-3,5-dioxo-pyrazolidin-1-yl]-benzoic acid methyl acid (designated as EI-41, 50 μM), HLI98C (50 μM) or iodoacetamide […] for 1 hour followed by lysis, SDS-PAGE under either non-reducing (FIG. 7A) or reducing (FIG. 7B) conditions and immunoblotting with anti-E1. Results are shown in FIGS. 7A and 7B, where the EI-41 compound is shown to inhibit the loading of EI with ubiquitin.
# [6] = target: T2, His6-E1 (Homo sapiens, UniProt P22314); assay: Bead immobilized His6-E1: wash-out and glutathione competition; assay type: biochemical
# T2 sequence (P22314 1-1058): T1 sequence (P22314 1-1058)
# Protocol: Bead immobilized His6-E1 was treated with E1 inhibitor 4-[4-(5-nitro-furan-2-ylmethylene)-3,5-dioxo-pyrazolidin-1-yl]-benzoic acid methyl acid (E1 41) at a range of concentrations (0-50 μm) as indicated in FIG. 9A. The beads were subjected to wash (+wash) or no wash (−wash) conditions.
# The ability of a compound to inhibit E1 activity may come from the ability of the compound to interfere with the formation of thiolester linkages between ubiquitin and E1. Next, the biological activity of E1 41 was tested to examine if it can be inhibited or prevented by treatment with an excess of reduced glutathione. […] Thus, E1 41 can act as a target for nucleophilic attack by active site thiol of E1 (e.g., a central double bond of a compound can serve as Michael-acceptor for the nucleophilic thiol in a Michael-type reaction).
smiles,measurement,setting,value
"COC(=O)c1ccc(N2NC(=O)/C(=C/c3ccc([N+](=O)[O-])o3)C2=O)cc1 [E1-41, 4-[4-(5-nitro-furan-2-ylmethylene)-3,5-dioxo-pyrazolidin-1-yl]-benzoic acid methyl acid]",TNFα-induced IκBα degradation,[1],prevents TNFα-induced IκBα degradation
same,activation of p53-driven luciferase reporter,[2],activated a p53-driven luciferase reporter to a level comparable to adriamycin
same,effect on growth of untransformed retinal pigment epithelial cells,[3],causes growth arrest
same,killing of MEFs expressing wild type p53,[4],only kills MEFs
same,E1-Ub thiol-ester formation in RPE cells,[5],inhibit E1-Ub thiol-ester formation
same,removal of compound from E1 by washing,"[6]; 0-50 μm, wash versus no wash",cannot be washed away
same,effect of reduced glutathione on the inhibitory action on E1,"[6]; 50 μM compound, GSH 0.1-10 mM",can be prevented by the addition of reduced glutathione (GSH) in a dose-dependent manner
